# Reference: US20100286247A1, “Methods of Protection from Oxidative Stress” (Trustees of Boston University, priority 2005, published 2010)
# {P} = phosphate
# Key:
# SOD1 mRNA = experiment: Northern blot analysis of antioxidant enzyme mRNA: SOD1; assay type: cell-based, human; details: 100 μM pTT, 8-72 hours, three donors
# Experimental: (§1) Cell culture followed previously published methods.^92 Primary human newborn dermal fibroblasts were cultured from neonatal circumcised foreskin specimens. The skin samples were treated overnight in a 0.25% trypsin solution at 4° C. to separate the epidermis from the dermis. The separated dermis was then cut into pieces and plated onto etched plastic tissue culture dishes. Primary culture medium consisted of DMEM supplemented with 10% bovine CS, 50 U/ml penicillin and 50 μg/ml streptomycin sulfate. […] Secondary culture medium consisted of DMEM supplemented with 10% CS.
# (§2) Purified 5′-phosphorylated thymidine dinucleotides (pTT) (Midland Certified Reagents, Inc., Texas) purified by gel filtration and analyzed by mass spectroscopy, were obtained in lyophilized form. […] The stock solution was syringe filter-sterilized through a 0.2 μm pore filter and spectrophotometrically analyzed (absorbance at 260 and 280 nm) to determine the concentration, and frozen in aliquots at −20° C. […]
# (§3) Cells were harvested in Trizol (Gibco BRL, Gaithersburg, Md.) and stored at −70° C. […] RNA solutions were measured by spectrophotometer readings at 260 nm and 280 nm to determine concentration and purity. […]
# (§4) Northern and western films as well as stained membranes and pictures of ethidium bromide-stained gels were digitally scanned and analyzed by densitometry. […]
# SOD2 mRNA = experiment: Northern blot analysis of antioxidant enzyme mRNA: SOD2; assay type: cell-based, human; details: 100 μM pTT, 8-72 hours, three donors
# Experimental: as §1, §2, §3, §4
# [1] = 100 μM pTT, in vitro and in mouse models in vivo; cited from earlier work
# total p53 protein = details: 40 μM, published reports; cited from earlier work
# phospho-p53 (Ser-15) = experiment: Western blot of activated p53 (serine-15 phosphorylation); assay type: cell-based, human; details: by 36-48 hours, sustained through 72 hours; 40 μM TO, 100 μM pTT
# Experimental: (§5) Western blot analysis of proteins from cells treated and harvested in parallel with DCF time course studies was conducted as described above. Membranes were reacted with antibodies to total p53/DO-1 (1:1000 dilution, Oncogene Research Products, Cambridge, Mass.), anti-phoso-p53 (Ser-15) (1:1000 dilution, Cell Signaling Technology, Beverly, Mass.), and p21/Cip1/Waf1 (1:500 dilution, Transduction Laboratories, Lexington, Ky.), followed by appropriate secondary antibodies diluted 1:2000.
# p21/Cip1/Waf1 protein = experiment: Western blot of p21/Cip1/Waf1; assay type: cell-based, human; details: by 36-48 hours, sustained through 72 hours; 40 μM TO, 100 μM pTT
# Experimental: as §5
# GPX protein = experiment: Western blot analysis of antioxidant enzymes: GPX protein; assay type: cell-based, human; details: 40 μM, within several hours, up to 168 hours
# Experimental: Cell lysates were harvested at various intervals after T-oligo treatment in harvest buffer containing 0.25 M Tris HCl (pH 7.5), 0.375 M NaCl, 2.5% sodium deoxycholate, 1% Triton X-100, 25 mM MgCl2, 0.1 mg/ml aprotinin (Sigma, St. Louis, Mo.) and 1 mM phenylmethyl sulfonyl flouride (PMSF) (Sigma). Samples were sheared through a fine needle syringe, sonicated, centrifuged and the supernatant was isolated. Total cellular protein concentrations were determined spectrophotometrically with the Bio-Rad protein assay (Bio-Rad Laboratories, Inc, Hercules, Calif.). Equal amounts of total protein from each sample (35-65 μg) were separated by 10-15% polyacrylamide gel electrophoresis, and transferred to nitrocellulose membranes. […]
# Membranes were reacted with antibodies diluted in Tris-based buffer with nonfat milk powder as a blocking agent. […] Antibody binding was detected with electrochemical luminescence (ECL kit, NEN Life Science Products, Inc.) and exposure to XAR film (Eastman Kodak Co.).
# The levels of superoxide dismutase 1 (SOD1), superoxide dismutase 2 (SOD2), catalase (Cat) and glutathione peroxidase (GPX) were determined in newborn fibroblasts at different time points after treatment with 40 μM of T-oligo in comparison with cells treated either with 40 μM of control complementary oligo pCTAACCCTAAC (SEQ ID NO: 22) or diluent. […]
Substance,SOD1 mRNA level compared to diluent (SOD1 mRNA),SOD2 mRNA level compared to diluent (SOD2 mRNA),nucleotide excision DNA repair and UV resistance [1],time to p53 induction (total p53 protein) [h],"phospho-p53-ser15 response, TO vs pTT (phospho-p53 (Ser-15))","p21 protein response, TO vs pTT (p21/Cip1/Waf1 protein)",GPX protein level (GPX protein)
5′-phosphorylated thymidine dinucleotides [pTT],no difference between pTT- and diluent-treated cells,no difference between pTT- and diluent-treated cells,stimulates enhanced nucleotide excision DNA repair and resistance to subsequent UV irradiation,–,–,–,–
"pGTTAGGGTTAG (5' {P}, sugars by position and backbone not given here) [TO]",–,–,–,≤ 8,greater than to pTT,greater than to pTT,induced
